target: Endothelial lipase (EL) (Homo sapiens (Human), UniProt Q9Y5X9); experiment: Endothelial lipase (EL) enzymatic assay with fluorescent substrate A10070 in DMPG vesicles; format: biochemical
Protocol: Endothelial lipase (EL) and hepatic lipase (HL) activities were measured using a fluorescent substrate, A10070, (Invitrogen, CA) doped into an artificial vesicle containing DMPG (Avanti Polar Lipids) as the excipient. Vesicles were prepared by combining 571 μL of 29 mM DMPG in a 1:1 mixture of MeOH and CHCl3 with 2000 μL of 1 mM A10070 in a 1:1 mixture of MeOH and CHCl3. The mixture was dried under nitrogen in multiple vials then resuspended in 20 mL total volume of 50 mM HEPES pH 8.0 buffer containing 50 mM NaCl and 0.2 mM EDTA. The sample was allowed to sit at room temperature for 15 min and then was sonicated 3×4 mins on ice with a Branson Sonicator using duty cycle 1. This preparation provides vesicles with a mole fraction of 0.11 for the FRET substrate.
The enzymatic assay was measured using 384-well white Optiplates. Each well contained 20 μL of assay buffer (50 mM HEPES pH 8.0, 50 mM NaCl and 1 mM CaCl2) and 0.25 μL of a DMSO solution containing a compound of interest. EL or HL (10 μL) was added and allowed to incubate with the compound for 30 min at 37° C. The source of EL was conditioned media obtained from HT-1080 cells that were transformed using RAGE technology (Athersys) to overexpress endogenous EL, and HL was partially purified from conditioned media obtained from COS cells overexpressing HL. The reaction was started by the addition of 10 μL of a 1:10 dilution of vesicles. The final total reaction volume was […]. The reaction rates were measured on a Gemini plate reader with an excitation wavelength of 490 nm and an emission wavelength of 530 nm. Readings were taken over a period of 60 minutes, and the slope between 300 and 900 secs of the readout was used to calculate the rate of the reaction.

Endothelial lipase (EL), sequence (Q9Y5X9 21-500): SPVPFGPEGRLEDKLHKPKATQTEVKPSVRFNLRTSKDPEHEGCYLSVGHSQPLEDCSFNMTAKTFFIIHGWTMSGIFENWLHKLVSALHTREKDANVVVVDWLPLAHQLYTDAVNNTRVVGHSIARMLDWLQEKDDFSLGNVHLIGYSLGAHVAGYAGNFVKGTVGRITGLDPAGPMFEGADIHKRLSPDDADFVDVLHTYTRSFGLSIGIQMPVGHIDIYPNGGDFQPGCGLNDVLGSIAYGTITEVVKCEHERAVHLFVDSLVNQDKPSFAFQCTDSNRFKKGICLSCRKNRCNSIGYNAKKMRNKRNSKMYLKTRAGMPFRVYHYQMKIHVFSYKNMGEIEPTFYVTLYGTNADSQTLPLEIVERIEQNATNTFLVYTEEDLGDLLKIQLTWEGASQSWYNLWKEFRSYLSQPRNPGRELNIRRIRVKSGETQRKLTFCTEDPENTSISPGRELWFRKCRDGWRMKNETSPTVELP

IC50	Structure (SMILES)
68 nM	O=C(CNC(=O)C(c1nc2c(F)cc(-c3ccc4c(c3)C(=O)NC4)cc2s1)S(=O)(=O)c1ccc(F)cc1)NC1CC1 (stereo not shown) [Example 477, N-[(cyclopropyl-carbamoyl)methyl]-2-[4-fluoro-6-(3-oxo-2,3-dihydro-1H-isoindol-5-yl)-1,3-benzothiazol-2-yl]-2-(4-fluorobenzene-sulfonyl)acetamide]
35 nM	COCCS(=O)(=O)C(C(=O)NCC(=O)NC1CC1)c1nc2cc(F)c(-c3ccc4c(c3)OCC(=O)N4)cc2s1 (stereo not shown) [Example 417, N-[(cyclopropyl-carbamoyl)methyl]-2-[5-fluoro-6-(3-oxo-3,4-dihydro-2H-1,4-benzoxazin-7-yl)-1,3-benzothiazol-2-yl]-2-(2-methoxyethane-sulfonyl)acetamide]
27 nM	O=C(CNC(=O)C(c1nc2ccc(-c3ccnc(O)c3)cc2s1)S(=O)(=O)c1ccc(F)cc1)NC1CC1 (stereo not shown) [Example 599, N-[(cyclopropyl-carbamoyl)methyl]-2-(4-fluorobenzene-sulfonyl)-2-[6-(2-hydroxypyridin-4-yl)-1,3-benzothiazol-2-yl]acetamide]
5 nM	CN(C)S(=O)(=O)C(C(=O)NCC(=O)NC1CC1)c1nc2c(F)cc(-c3ccc4[nH]c(=O)ccc4c3)cc2s1 (stereo not shown) [Example 492, N-[(cyclopropyl-carbamoyl)methyl]-2-(dimethyl-sulfamoyl)-2-[4-fluoro-6-(2-oxo-1,2-dihydroquinolin-6-yl)-1,3-benzothiazol-2-yl]acetamide]
1 nM	Cn1ncc2ccc(-c3cc4sc(C(C(=O)NCC(=O)NC5CC5)S(C)(=O)=O)nc4cc3F)cc21 (stereo not shown) [Example 196, N-[(cyclopropyl-carbamoyl)methyl]-2-[5-fluoro-6-(1-methyl-1H-indazol-6-yl)-1,3-benzothiazol-2-yl]-2-methanesulfonyl-acetamide]
19 nM	Cc1cc2nc(C(C(=O)NCC(=O)NC3CC3)S(=O)(=O)C(C)C)sc2cc1-c1ccc(C(=O)N(C)C)cc1 (stereo not shown) [Example 215, 4-[2-({[(cyclopropyl-carbamoyl)methyl]carbamoyl} (propane-2-sulfonyl)methyl)-5-methyl-1,3-benzothiazol-6-yl]-N,N-dimethyl-benzamide]
14 nM	CS(=O)(=O)C(C(=O)NCC(=O)NC1CC1)c1nc2c(Cl)cc(-c3ccc(F)nc3)cc2s1 (stereo not shown) [Example 121, 2-[4-chloro-6-(6-fluoropyridin-3-yl)-1,3-benzothiazol-2-yl]-N-[(cyclopropyl-carbamoyl)methyl]-2-methanesulfonyl-acetamide]
7 nM	COCCS(=O)(=O)C(C(=O)NCC(=O)NC1CC1)c1nc2cc(F)c(-c3ccc(C(=O)NCCC#N)cc3)cc2s1 (stereo not shown) [Example 42, N-(2-cyanoethyl)-4-[2-({[(cyclopropyl-carbamoyl)methyl]carbamoyl}(2-methoxyethane-sulfonyl)methyl)-5-fluoro-1,3-benzothiazol-6-yl] benzamide]
5 nM	CC(C)S(=O)(=O)C(C(=O)NCC(=O)NC1CC1)c1nc2cc(-c3ccc4c(=O)n(C)ccc4c3)c(F)cc2s1 (stereo not shown) [Example 267, N-[(cyclopropyl-carbamoyl)methyl]-2-[6-fluoro-5-(2-methyl-1-oxo-1,2-dihydro-isoquinolin-6-yl)-1,3-benzothiazol-2-yl]-2-(propane-2-sulfonyl) acetamide]
7 nM	CC(C)S(=O)(=O)C(C(=O)NCC(=O)NC1CC1)c1nc2cc(F)c(-c3cccc(NC(=O)OCc4ccccc4)c3)cc2s1 (stereo not shown) [Example 557, benzyl N-{3-[2-({[(cyclopropyl-carbamoyl)methyl]carbamoyl} (propane-2-sulfonyl)methyl)-5-fluoro-1,3-benzothiazol-6-yl]phenyl}carbamate]
24 nM	COCCS(=O)(=O)C(C(=O)NCC(=O)NC1CC1)c1nc2cc(-c3ccnc(C)c3)ccc2s1 (stereo not shown) [Example 70, N-[(cyclopropyl-carbamoyl)methyl]-2-(2-methoxyethane-sulfonyl)-2-[5-(2-methylpyridin-4-yl)-1,3-benzothiazol-2-yl]acetamide]
47 nM	O=C(CNC(=O)C(c1nc2ccc(-c3cncnc3)cc2s1)S(=O)(=O)c1ccc(F)cc1)NC1CC1 (stereo not shown) [Example 460, N-[(cyclopropyl-carbamoyl)methyl]-2-(4-fluorobenzene-sulfonyl)-2-[6-(pyrimidin-5-yl)-1,3-benzothiazol-2-yl]acetamide]
9 nM	CC(C)S(=O)(=O)C(C(=O)NCC(=O)NC1CC1)c1nc2cc(-c3ccc4[nH]c(=O)ccc4c3)c(F)cc2s1 (stereo not shown) [Example 270, N-[(cyclopropyl-carbamoyl)methyl]-2-[6-fluoro-5-(2-oxo-1,2-dihydroquinolin-6-yl)-1,3-benzothiazol-2-yl]-2-(propane-2-sulfonyl)acetamide]
3 nM	COCCS(=O)(=O)C(C(=O)NCC(=O)NC1CC1)c1nc2cc(F)c(-c3ccc4c(=O)n(C)ccc4c3)cc2s1 (stereo not shown) [Example 153, N-[(cyclopropyl-carbamoyl)methyl]-2-[5-fluoro-6-(2-methyl-1-oxo-1,2-dihydro-isoquinolin-6-yl)-1,3-benzothiazol-2-yl]-2-(2-methoxyethane-sulfonyl) acetamide]
11 nM	COC(=O)Nc1ccc(-c2cc3nc(C(C(=O)NCC(=O)NCCOC(C)C)S(C)(=O)=O)sc3cc2F)cc1F (stereo not shown) [Example 363, methyl N-[2-fluoro-4-(6-fluoro-2-{methanesulfonyl [({[2-(propan-2-yloxy)ethyl]carbamoyl}methyl)carbamoyl]methyl}-1,3-benzothiazol-5-yl)phenyl]carbamate]

Further lines, the compound ahead of its results:

Structure (SMILES)	IC50
COCC(C)(C)NC(=O)c1ccc(-c2ccc3nc(C(C(=O)NCC(=O)NC4CC4)S(C)(=O)=O)sc3c2)cc1 (stereo not shown) [Example 560, 4-[2-({[(cyclopropyl-carbamoyl)methyl]carbamoyl} (methanesulfonyl)methyl)-1,3-benzothiazol-6-yl]-N-(1-methoxy-2-methylpropan-2-yl)benzamide]	2 nM
COCCNC(=O)c1ccc(-c2cc(F)c3nc(C(C(=O)NCC(=O)NC4CC4)S(=O)(=O)CCOC)sc3c2)cc1 (stereo not shown) [Example 218, 4-[2-({[(cyclopropyl-carbamoyl)methyl]carbamoyl}(2-methoxyethane-sulfonyl)methyl)-4-fluoro-1,3-benzothiazol-6-yl]-N-(2-methoxyethyl) benzamide]	28 nM
O=C(CNC(=O)C(c1nc2ccc(-c3ccc(OCC4CC4)nc3)cc2s1)S(=O)(=O)Cc1ccc(F)cc1)NC1CC1 (stereo not shown) [Example 205, N-[(cyclopropyl-carbamoyl)methyl]-2-{6-[6-(cyclopropyl-methoxy)pyridin-3-yl]-1,3-benzothiazol-2-yl}-2[(4-fluorophenyl)methanesulfonyl] acetamide]	8 nM
COCCS(=O)(=O)C(C(=O)NCC(=O)NC1CC1)c1nc2ccc(-c3ccccc3)cc2s1 (stereo not shown) [Example 305, N-[(cyclopropyl-carbamoyl)methyl]-2-(2-methoxyethane-sulfonyl)-2-(6-phenyl-1,3-benzothiazol-2-yl) acetamide]	7 nM
COc1ccc(OCCCS(=O)(=O)C(C(=O)NCC(=O)NC2CC2)c2nc3ccc(-c4ccc(F)nc4)cc3s2)cc1 (stereo not shown) [Example 19, N-[(cyclopropyl-carbamoyl)methyl]-2-[6-(6-fluoropyridin-3-yl)-1,3-benzothiazol-2-yl]-2-[3-(4-methoxyphenoxy)propanesulfonyl] acetamide]	7 nM
COCCS(=O)(=O)C(C(=O)NCC(=O)NC1CC1)c1nc2cc(-c3ccc(COC)cc3)ccc2s1 (stereo not shown) [Example 338, N-[(cyclopropyl-carbamoyl)methyl]-2-(2-methoxyethane-sulfonyl)-2-{5-[4-(methoxymethyl)phenyl]-1,3-benzothiazol-2-yl}acetamide]	42 nM
CCOc1ccc(-c2ccc3sc(C(C(=O)NCC(=O)NC4CC4)S(=O)(=O)CCOC)nc3c2)cn1 (stereo not shown) [Example 69, N-[(cyclopropyl-carbamoyl)methyl]-2-[5-(6-ethoxypyridin-3-yl)-1,3-benzothiazol-2-yl]-2-(2-methoxyethane-sulfonyl) acetamide]	23 nM
CC(C)Oc1ccc(-c2cc3sc(C(C(=O)NCC(=O)NC4CC4)S(=O)(=O)C(C)C)nc3cc2F)cn1 (stereo not shown) [Example 235, N-[(cyclopropyl-carbamoyl)methyl]-2-{5-fluoro-6-[6-(propan-2-yloxy)pyridin-3-yl]-1,3-benzothiazol-2-yl}-2-(propane-2-sulfonyl) acetamide]	6 nM
COCCNC(=O)CNC(=O)C(c1nc2ccc(-c3ccn(C)c(=O)c3)cc2s1)S(=O)(=O)c1ccc(F)cc1 (stereo not shown) [Example 463, 2-(4-fluorobenze-nesulfonyl)-N-{[(2-methoxyethyl)carbamoyl]methyl}-2-[6-(1-methyl-2-oxo-1,2-dihydropyridin-4-yl)-1,3-benzothiazol-2-yl]acetamide]	24 nM
COCCS(=O)(=O)C(C(=O)NCC(=O)NC1CC1)c1nc2cc(-c3cncc(OC)c3)ccc2s1 (stereo not shown) [Example 64, N-[(cyclopropyl-carbamoyl)methyl]-2-(2-methoxyethane-sulfonyl)-2-[5-(5-methoxypyridin-3-yl)-1,3-benzothiazol-2-yl]acetamide]	11 nM
